Reference: US20060121449A1, “Method for selection of compounds which inhibit clonal cell growth and use thereof” (priority 2002, published 2006)
“Also recorded” adds a separate entry of the source. Starred links: 1 amine or outer side, 2 acyl side, 3 side chain; linkers in the order of their positions; H or OH if unused. Positions of bridges follow the written chain, without caps; N, C: chain ends. Non-standard residues stand in square brackets, D forms with d. Residues, ends and D or L forms follow the SMILES beside them. Chains are numbered I, II in the order given. Actinocin(9to1) = Cc1c2oc3c(C)ccc(C(=O)[*:1])c3nc-2c(C(=O)[*:2])c(N)c1=O; NMeV = CN[C@H](C(=O)O)C(C)C; Sar = CNCC(=O)O

Test system: polyoma virus transformed BHK21/c13 cells, line S100T1
Assay: Collocation inhibition test: clonal growth in sparsely and densely seeded areas of a cell density gradient of S100T1 cells in soft agar (Exp 13, 17, 19-26);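 further: soft agar cultures in 24-well plates with a cell density gradient in the top layer, compounds applied from DMSO stocks, clonal growth scored in sparse versus dense areas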;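 on Clonal growth, H high density area of cell gradient, High: grades rise with clonal growth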;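 on Clonal growth, H high density area of cell gradient, Low: grades rise with clonal growth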;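 on Clonal growth, H high density area of cell gradient, Medium: grades rise with clonal growth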;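 on Clonal growth, L low density area of cell gradient, High: grades rise with clonal growth and minus or plus-minus means none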;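 on Clonal growth, L low density area of cell gradient, Low: grades rise with clonal growth and minus or plus-minus means none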;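 on Clonal growth, L low density area of cell gradient, Medium: grades rise with clonal growth and minus or plus-minus means none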
Conditions: for Effect on clonal growth and toxicity: 117000 S100T1 cells/well; for Clonal growth, H high density area of cell gradient, High / Clonal growth, L low density area of cell gradient, High / Clonal growth, H high density area of cell gradient, Low / Clonal growth, L low density area of cell gradient, Low / Clonal growth, H high density area of cell gradient, Medium / Clonal growth, L low density area of cell gradient, Medium / Effect on cell cloning in soft agar: preliminary results; for Clonal growth, H high density area of cell gradient, High / Clonal growth, L low density area of cell gradient, High / Clonal growth, H high density area of cell gradient, Low / Clonal growth, L low density area of cell gradient, Low / Clonal growth, H high density area of cell gradient, Medium / Clonal growth, L low density area of cell gradient, Medium: Exp 13-18, 21-26; for Effect on cell cloning in soft agar: in words; for Effect on clonal growth, high dose: 172800 S100T1 cells/well; for Resulting clonal growth of treated cultures: Experiment 26, read after 24 hours
[1] = Exp 21, 117000 cells per well, Low concentration (see figure), H: area with high cell density
[2] = Exp 21, High concentration, H: area with high cell density
[3] = Exp 21, Low concentration, L: area with low cell density
[4] = Exp 21, Medium concentration, H: area with high cell density
[5] = Exp 21, Medium concentration, L: area with low cell density
[6] = H: area with high cell density, High concentration
[7] = H: area with high cell density, Low concentration
[8] = H: area with high cell density, Medium concentration
[9] = L: area with low cell density, High concentration
[10] = L: area with low cell density, Low concentration
[11] = L: area with low cell density, Medium concentration
[12] = 4-OH-OPB analogues, S100T1 in soft agar, high concentration
[13] = 4-OH-OPB analogues, S100T1 in soft agar, low concentration
[14] = 4-OH-OPB analogues, S100T1 in soft agar, medium concentration
[15] = Exp 21, High concentration, L: area with low cell density

Row | Compound | Effect on clonal growth and toxicity (Exp 21) | Clonal growth [1] | Clonal growth [2] | Clonal growth [3] | Clonal growth [4] | Clonal growth [5] | Clonal growth, H high density area of cell gradient, High (high concentration) | Clonal growth, L low density area of cell gradient, High (high concentration) | Clonal growth, H high density area of cell gradient, Low (low concentration) | Clonal growth, L low density area of cell gradient, Low (low concentration) | Clonal growth, H high density area of cell gradient, Medium (medium concentration) | Clonal growth, L low density area of cell gradient, Medium (medium concentration) | Effect on cell cloning in soft agar | Resulting clonal growth of treated cultures [6] | Resulting clonal growth of treated cultures [7] | Resulting clonal growth of treated cultures [8] | Resulting clonal growth of treated cultures [9] | Resulting clonal growth of treated cultures [10] | Resulting clonal growth of treated cultures [11] | also measured
1 | Cc1c2oc3c(C)ccc(C(=O)N[C@@H]4C(=O)N[C@H](C(C)C)C(=O)N5CCC[C@H]5C(=O)N(C)CC(=O)N(C)[C@@H](C(C)C)C(=O)O[C@@H]4C)c3nc-2c(C(=O)N[C@@H]2C(=O)N[C@H](C(C)C)C(=O)N3CCC[C@H]3C(=O)N(C)CC(=O)N(C)[C@@H](C(C)C)C(=O)O[C@@H]2C)c(N)c1=O [Actino-mycin D, Actinomycin D, reference compound] (I: T[dV]P[Sar][NMeV] / II: T[dV]P[Sar][NMeV]; ester I:1-I:C, II:1-II:C; linker I:N-II:N via Actinocin(9to1)) | good, but probably no complete inhibition of clonal growth at low toxicity; also recorded: no absolute clonal inhibition of sparsely seeded cells; also recorded: There was signs of good, but not complete | ++ | + | + | ++ | (+) | + | ((+)) | ++ | + | ++ | (+) | Good, but not complete inhibition |  |  |  |  |  |  | 
2 | c1ccc2c(c1)cc1ccc3cccc4ccc2c1c34 [Benzo(a)pyrene, reference compound] |  |  |  |  |  |  | ++ | +++ | ++ | ++ | ++ | ++ | Increased clonal growth at low density | ++ | ++ | ++ | +++ | ++ | ++ | Effect on clonal growth, high dose (Exp 26): increased clonability
3 | CC1=C(CC(=O)O)c2cc(F)ccc2/C1=C\c1ccc([S+](C)[O-])cc1 (centres unmarked) [Sulindac, reference compound] |  |  |  |  |  |  | ++ | + | ++(+) | +++ | ++ | ++ | Possible clonal stimulation at low | ++ | ++(+) | ++ | + | +++ | ++ | Effect on clonal growth of sparsely seeded cells, low dose (Exp 26): clone-inducing effect; Effect on clonal growth, high dose (Exp 26): weak anti-cloning effect on sparsely seeded cells; also recorded: abrogated this effect. It is considered logic
4 | 4-hydroxy-4-aldehyd-1,2-diphenyl-pyrazolidinedione [#10] |  |  |  |  |  |  |  |  |  |  |  |  |  |  |  |  |  |  |  | Clonal growth, H: high density area of cell gradient, High [12]: ((+)); Clonal growth, L: low density area of cell gradient, High [12]: −; Clonal growth, H: high density area of cell gradient, Low [13]: ++; Clonal growth, L: low density area of cell gradient, Low [13]: ++; Clonal growth, H: high density area of cell gradient, Medium [14]: ++; Clonal growth, L: low density area of cell gradient, Medium [14]: −; Concentration inhibiting clonal growth of sparsely seeded cells without affecting densely seeded areas (Exp 25, medium concentration, 180000 S100T1 cells/well): about 50 μM; Clonal growth (Experiment 25, H: area with high cell density, Low concentration, after 48 hours incubation): ++; Clonal growth (Experiment 25, H: area with high cell density, Medium concentration, after 48 hours incubation): ++; Clonal growth (Experiment 25, L: area with low cell density, High concentration, after 48 hours incubation): −; Clonal growth (Experiment 25, L: area with low cell density, Low concentration, after 48 hours incubation): ++; Clonal growth (Experiment 25, L: area with low cell density, Medium concentration, after 48 hours incubation): −; Clonal growth (Summary Table 3 of analogue tests (experiments 22-25), H (high cell density), Low concentration): ++; Clonal growth (Summary Table 3 of analogue tests (experiments 22-25), H (high cell density), Medium concentration): ++; Clonal growth (Summary Table 3 of analogue tests (experiments 22-25), L (low cell density), High concentration): −; Clonal growth (Summary Table 3 of analogue tests (experiments 22-25), L (low cell density), Low concentration): ++; Clonal growth (Summary Table 3 of analogue tests (experiments 22-25), L (low cell density), Medium concentration): −; Clonal inhibition by 4-OH-OPB analogues, summary of Exp 22-25 (sparsely seeded areas while densely seeded areas of the same culture showed significant growth, listed as # 10): complete inhibition of growth in sparsely seeded areas
5 | CN(C)c1nc(N(C)C)nc(N(C)C)n1 [Altretamine, reference compound] |  |  |  |  |  |  | ++ | ++ | ++ | ++ | ++ | ++ | No effect | ++ | ++ | ++ | ++ | ++ | ++ | Effect on clonal growth (Exp 26): No effect on cell growth was observed; also recorded: carcinoma in mice. Altretamine had no effect
6 | O=c1[nH]cc(F)c(=O)[nH]1 [Fluorouracil, reference compound] | relatively moderate inhibition of clonal growth and low toxicity independent of dosage | ++ | ++ | + | ++ | + | ++ | + | ++ | + | ++ | + | Rel. moderate inhibition of clonal growth |  |  |  |  |  |  | Clonal growth [15]: +
7 | Nc1ccn([C@@H]2O[C@H](CO)[C@@H](O)[C@@H]2O)c(=O)n1 [Cytarabin, reference compound] | significant toxic effect at dosage that showed significant inhibition of clonal growth; also recorded: incomplete inhibition and signs of toxicity | ++ | (+) | + | ++ | + | (+) | (+) | ++ | + | ++ | + | Incomplete inhibition of clonal growth |  |  |  |  |  |  | Effect on clonal growth and toxicity (Exp 21, listed as Cytarabine): incomplete inhibition of clonal growth and significant toxicity; Clonal growth [15]: (+)
8 | COc1c(C)c2c(c(O)c1C/C=C(\C)CCC(=O)O)C(=O)OC2 [Mycophenolic acid, reference compound] |  |  |  |  |  |  | (+) | (+) | (+) | (+) | (+) | (+) | Less growth in both high and low |  |  |  |  |  |  | 
